SMILES strings stand for the structures.

The target of this experiment is cAMP and cAMP-inhibited cGMP 3',5'-cyclic phosphodiesterase 10A (Homo sapiens, UniProt Q9Y233). The experiment can be described thus: Diaxonhit Phosphodiesterase Assay: The phosphodiesterase assay was developed using the LANCE cAMP kit (PerkinElmer). The assay buffer contained HBSS with 5 mM HEPES, 0.1% BSA, and 1.5 mM MgCl2, pH 7.4. PDE10A (BPS Bioscience) was used at 200 pg/well (with a specific activity of 3200 pmole/min/ug with assay conditions: 10 mM Tris-HCl, pH 7.4, 10 mM MgCl2, 1 mM MnCl2, 200 uM cAMP, 2.5 kU 5' nucleotidase, 37° C., 20 min) and PDE4D3 (BPS Bioscience) was used at 100 pg/well (with a specific activity of 32713 pmole/min/ug with assay conditions: 10 mM Tris-HCl, pH 7.4, 10 mM MgCl2, 1 mM MnCl2, 200 uM cAMP, 2.5 kU 5' nucleotidase, 37° C., 20 min). The Biotin-cAMP tracer, supplied in 10 mmol/L Tris-HCl buffered (pH 8.0) salt solution with 1 mmol/L ethylenediaminetetraacetic acid (EDTA), 0.1% bovine serum albumin (BSA), and 0.05% sodium azide, is used at a dilution of 1/375. The assay detection mixture contained the LANCE Eu-W8044 labeled streptavidin 1/2250 (supplied in 50 mmol/L Tris-HCl buffer). (TR-FRET usually uses a lanthanide donor and a delayed reading to cut background.)
cAMP and cAMP-inhibited cGMP 3',5'-cyclic phosphodiesterase 10A, sequence (Q9Y233 whole entry): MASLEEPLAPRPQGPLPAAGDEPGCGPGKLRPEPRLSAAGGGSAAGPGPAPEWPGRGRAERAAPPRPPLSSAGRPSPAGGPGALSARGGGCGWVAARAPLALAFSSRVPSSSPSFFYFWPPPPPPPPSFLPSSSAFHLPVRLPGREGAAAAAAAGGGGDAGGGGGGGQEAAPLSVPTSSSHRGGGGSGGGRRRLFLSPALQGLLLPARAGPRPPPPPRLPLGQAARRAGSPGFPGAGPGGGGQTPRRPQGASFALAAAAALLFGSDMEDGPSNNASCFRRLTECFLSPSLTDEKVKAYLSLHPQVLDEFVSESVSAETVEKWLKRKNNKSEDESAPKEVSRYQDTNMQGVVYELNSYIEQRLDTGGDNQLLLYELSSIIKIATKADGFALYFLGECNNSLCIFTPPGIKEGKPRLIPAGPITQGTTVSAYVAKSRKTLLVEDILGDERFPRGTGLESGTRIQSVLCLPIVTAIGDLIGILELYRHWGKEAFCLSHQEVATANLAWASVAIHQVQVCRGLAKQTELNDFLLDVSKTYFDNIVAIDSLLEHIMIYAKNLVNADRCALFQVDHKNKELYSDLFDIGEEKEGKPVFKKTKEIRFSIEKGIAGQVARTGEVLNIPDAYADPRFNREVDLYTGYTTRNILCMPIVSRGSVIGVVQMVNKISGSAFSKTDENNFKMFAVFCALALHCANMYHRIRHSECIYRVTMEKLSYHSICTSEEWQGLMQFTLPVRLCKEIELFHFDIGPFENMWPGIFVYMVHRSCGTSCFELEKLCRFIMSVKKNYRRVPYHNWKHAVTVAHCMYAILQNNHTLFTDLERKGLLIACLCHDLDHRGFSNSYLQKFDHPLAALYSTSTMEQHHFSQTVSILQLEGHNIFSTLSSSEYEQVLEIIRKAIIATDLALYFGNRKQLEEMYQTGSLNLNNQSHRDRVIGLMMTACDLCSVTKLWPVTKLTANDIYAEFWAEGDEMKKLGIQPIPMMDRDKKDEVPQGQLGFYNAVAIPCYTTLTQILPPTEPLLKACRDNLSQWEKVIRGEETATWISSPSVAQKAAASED
As for `COCc1ncc(Cc2ccc3cccc(NS(N)(=O)=O)c3n2)c2cc(OC)c(OC)cc12`, the IC50 (in general, the concentration needed to halve the response being measured) was determined as 0.18 nM.

Regarding `COc1cc2cncc(Cc3cnc4ccc(O)cc4c3)c2cc1OC`, the IC50 stood at 2.9 nM. Turning to `CCc1ncc(Cc2ccc3cccc(C#N)c3n2)c2cc(OC)c(OC)cc12`, the IC50 stood at 46 nM. With `COc1cc2cncc(Cc3ccc4[nH]c(=O)oc4c3)c2cc1OC`, the IC50 worked out at 34 nM. Regarding `CCc1ncc(Cc2cnc3ccc(NS(N)(=O)=O)cc3c2)c2cc(OC)c(OC)cc12`, the IC50 stood at 4.6 nM.

In the case of `CCCc1ncc(Cc2ccc3c(C(F)(F)F)ccc(O)c3n2)c2cc(OC)c(OC)cc12`, the IC50 worked out at 491 nM. For `CCCc1ncc(Cc2ccc3cccc(OCc4nnn[nH]4)c3n2)c2cc(OC)c(OC)cc12`, the IC50 was determined as 4.7 nM. On to `COc1cc2cncc(Cc3cnc4ccc(OCC(N)=O)cc4c3)c2cc1OC`, for which the IC50 worked out at 2.5 nM. As to `CCCc1ncc(Cc2ccc3cccc(OCC(=O)NC)c3n2)c2cc(OC)c(OC)cc12`, the concentration for half-maximal inhibition (IC50) is 51 nM. With `COc1cc2cncc(Cc3coc4c(Cl)cc(Cl)cc4c3=O)c2cc1OC`, the IC50 came out at 27 nM.

For the compound `COc1cc2c(Cc3ccc4cccc(O)c4n3)cnc(C)c2cc1OC`, the IC50 turned out to be 42 nM. Then `CCn1c(=O)oc2ccc(Cc3cncc4cc(OC)c(OC)cc34)cc21`, with 7.8 nM. For `CCc1ncc(Cc2cnc3ccc(N)cc3c2)c2cc(OC)c(OC)cc12`, the IC50 amounted to 13 nM. With `CCCc1ncc(Cc2ccc3cccc(OCCNC(C)=O)c3n2)c2cc(OC)c(OC)cc12`, the IC50 turned out to be 58 nM. As to `CCc1ncc(Cc2ccc3cccc(OCCO)c3n2)c2cc(OC)c(OC)cc12`, the IC50 stood at 192 nM. For `COc1cc2cncc(Cc3coc4ccc(Cl)cc4c3=O)c2cc1OC`, the IC50 stood at 20 nM. `CCc1ncc(Cc2ccc3cccc(OCc4nnn[nH]4)c3n2)c2cc(OC)c(OC)cc12`: the IC50 was 31 nM. Take `CCCc1ncc(Cc2coc3ccc(C)cc3c2=O)c2cc(OC)c(OC)cc12`: the IC50 was 31 nM. Then `COc1cc2c(Cc3ccc4cccc(O)c4n3)cnc(C3CC3)c2cc1OC`, with 151 nM.

With `COc1cc2cncc(Cc3coc4ccc(F)cc4c3=O)c2cc1OC`, the IC50 stood at 38 nM.

With `CCc1ncc(Cc2ccc3cccc(C(N)=O)c3n2)c2cc(OC)c(OC)cc12`, the IC50 turned out to be 77 nM. `CCCc1ncc(Cc2coc3ccc(F)cc3c2=O)c2cc(OC)c(OC)cc12`: the IC50 was 54 nM.

As for `CCCc1ncc(Cc2ccc3c(C(F)(F)F)ccc(OCC(N)=O)c3n2)c2cc(OC)c(OC)cc12`, the IC50 was 102 nM. As to `CCCc1ncc(Cc2ccc3cccc(OCC(=O)O)c3n2)c2cc(OC)c(OC)cc12`, the IC50 stood at 4.9 nM. Take `COc1cc2c(Cc3ccc4cccc(OCC(N)=O)c4n3)cnc(C)c2cc1OC`: the IC50 came out at 64 nM.

Take `COc1cc2c(Cc3cnc4cc(C)ccc4c3)cnc(C)c2cc1OC`: the IC50 is 7.1 nM.

For `CCc1ncc(Cc2ccc3cccc(OCCC(=O)O)c3n2)c2cc(OC)c(OC)cc12`, the IC50 was 5 nM.

As to `CCc1ncc(Cc2cnc3ccc(NS(C)(=O)=O)cc3c2)c2cc(OC)c(OC)cc12`, the IC50 is 16 nM. Consider `COc1cc2c(Cc3ccc4cccc(OCC(N)=O)c4n3)cnc(C3CC3)c2cc1OC`, for which the IC50 stood at 67 nM. Then `CCCc1ncc(Cc2ccc3cccc(OCCC(=O)O)c3n2)c2cc(OC)c(OC)cc12`, with 2.3 nM; and `CCc1ncc(Cc2cnc3ccc(N4CCCC4=O)cc3c2)c2cc(OC)c(OC)cc12`, with 15 nM. Turning to `CCc1ncc(Cc2ccc3cccc(OCC(N)=O)c3n2)c2cc(OC)c(OC)cc12`, the IC50 is 20 nM. `CCc1ncc(Cc2cnc3ccc(O)cc3c2)c2cc(OC)c(OC)cc12`: the IC50 came out at 28 nM.

For `CCn1c(=O)oc2cc(Cc3cncc4cc(OC)c(OC)cc34)ccc21`, the IC50 was 32 nM. Then `CCc1ncc(Cc2ccc3cccc(NC(=O)C(N)=O)c3n2)c2cc(OC)c(OC)cc12`, with 17 nM; and `COc1cc2cncc(Cc3ccc4oc(-c5ccccc5)nc4c3)c2cc1OC`, with 189 nM; and `COc1cc2cnc(C)c(Cc3ccc4cccc(O)c4n3)c2cc1OC`, with 41 nM.
